# From patent publication US20220249397A1, “Automated Dosing Protocol for Use of Cannabinoids or Other Psychoactive Substances” (Function Better Inc., priority 2021, published 2022)
# Legend:
# Type in all cases: in vivo, human
# [1] = test system: subjects being treated for either anxiety, sleep, or pain; test: Experimental trial, all 16 subjects combined (anxiety, sleep or pain), mean daily scores
# Method: (§1) An experimental trial was conducted on 11 subjects who followed a 9-day dosing protocol for CBD oil. The subjects sought treatment for anxiety, pain, or sleep. On a daily basis, the subjects rated the intensity of their symptoms on a 0-10 numeric scale, with 0 being best and 10 being worst intensity. This scale was constructed similar to the standard ‘Numeric Pain Rating Scale’ often used in clinical practice for pain assessment.
# (§2) The trial further enrolled five additional subjects. […] Days 1-3 were a maximum of 5 mg CBD; days 4-6 were a maximum of 10 mg CBD; days 7-9 were a maximum of 20 mg CBD.
# user with pain = test: Example 1: 9 day dose titration protocol by automated text messages, user treating pain; set-up: key to pain score: higher = worse pain; 8 = severe, 6 = moderate
# Method: In this example This is an example of an automated text message exchange with a user for a 9 day (consecutive) dose titration protocol is sufficient to achieve a minimum effective dose. In this example, Twilio was the automated text messaging service that was used. The cannabinoid medication kit is three 15 ml bottles of CBD tincture (i.e. CBD mixed into an ethyl alcohol base): bottle #1, bottle #2, and bottle #3. Bottle #1 contains CBD at a concentration of 100 mg in 5 ml volume (20 mg/ml). Bottle #2 contains CBD at a higher concentration (2×) of 200 mg in 5 ml volume (40 mg/ml). Bottle #3 contains CBD at a further higher concentration (3×) of 300 mg in 5 ml volume (60 mg/ml). Because the three bottles have different dose amounts, to facilitate identifying the correct bottle and avoid mistakes, bottle #1 has a blue-colored label, bottle #2 has a yellow-colored label, and bottle #3 has an orange-colored label. The user inputs the product code or batch number. This ensures that the relevant dosing protocol is associated with the correct cannabinoid product.
# On day #1, the user reports a pain score of 8, indicating severe pain. Accordingly, the user is instructed to take the first dose of 6.25 mg from the (blue bottle) twice daily, and continue this dose regimen for the next three days. To facilitate correct adherence to the instructions, the user is shown an image of the blue bottle and the correct liquid level marking on the graduated dropper. On day #2, the user reports a pain score of 6, indicating a reduction in pain symptoms to a moderate level.
# On day #4, the user reports a pain score of 5, indicating a reduction in pain symptoms. […] The user is shown an image of the yellow bottle and the correct liquid level marking on the graduated dropper. On day #5, the user reports a pain score of 7, indicating a flare-up of the pain symptoms. The user is asked whether there were any external factors that might have caused this flare-up. […] Thus, the user is asked whether to pause the protocol to allow the user to reassess whether this treatment will be beneficial. Here, the user desires to continue CBD treatment.
# Accordingly, the user is given reassurance and instructed to continue at the same dose (i.e. 12.5 mg twice daily).
# It is now time for the user to increase the dose amount to stabilize the pain at that level. Accordingly, the user is instructed to switch to the orange bottle (60 mg/ml) and take 18.75 mg twice daily. The user is shown an image of the orange bottle and the correct liquid level marking on the graduated dropper. […] Accordingly, the user is instructed to continue the same dosing regimen (i.e. 18.75 mg twice daily). […] Accordingly, the user has reached the personalized minimum effective dose and is instructed to continue the same dosing regimen (i.e. 18.75 mg twice daily) from hereon. At the end of the protocol, the user also receives a summary report that indicates the minimum effective dose, the lowest pain score achieved, the starting and ending benchmarks, and a graph plotting the daily symptom scores.
# [2] = test system: subjects being treated for anxiety; test: Experimental trial, 9-day dosing protocol, subjects treated for anxiety
# Method: as §1, §2
# [3] = test system: subjects being treated for pain; test: Experimental trial, 9-day dosing protocol, subjects treated for pain
# Method: as §1, §2
structure (smiles),measurement,setting,value
"C=C(C)[C@@H]1CCC(C)=C[C@H]1c1c(O)cc(CCCCC)cc1O [CBD, cannabidiol]","mean scores, initial versus end score","[1]; days 1-3 max 5 mg, days 4-6 max 10 mg, days 7-9 max 20 mg CBD, FIG. 7",mean scores improved
same,"mean daily scores, trend line","[1]; days 1-9, FIG. 8",downward trending line
same,pain score,"user with pain; day #2, CBD tincture 6.25 mg twice daily, day #1 score 8",6
same,pain score,"user with pain; day #3, CBD tincture 6.25 mg twice daily",6
same,pain score,"user with pain; day #4, after 6.25 mg twice daily for three days",5
same,pain score,"user with pain; day #5, 12.5 mg twice daily, flare-up",7
same,pain score,"user with pain; day #6, 12.5 mg twice daily",5
same,pain score,"user with pain; day #7, after 12.5 mg twice daily",4
same,pain score,"user with pain; day #8, 18.75 mg twice daily",4
same,pain score,"user with pain; day #9, 18.75 mg twice daily",4
same,personalized minimum effective dose,"user with pain; reached on day #9, pain",18.75 mg twice daily
same,minimum optimal dose,"[2]; Subject #C1_8, anxiety",20 mg of CBD/day
same,anxiety score after completion of the protocol,"[2]; Subject #C1_8, started with score of 5, 0-10 scale",1
same,minimum optimal dose,"[2]; Subject #C1_10, anxiety",10 mg of CBD/day
same,anxiety score after completion of the protocol,"[2]; Subject #C1_10, started with score of 7, 0-10 scale",2
same,minimum optimal dose,"[3]; Subject #C1_4, pain",10 mg of CBD/day
same,pain score after completion of the protocol,"[3]; Subject #C1_4, started with score of 3, 0-10 scale",0
